Read-outs that look alike come from different tables or passages of the source.
Assays:
Assay type in all cases: cell-based, human
[1] = tested on: MYB; assay: HiBiT protein abundance assay, MYB; conditions: modified K562 cells
In short: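 K562 cells with endogenous HiBiT-tagged target were treated 24 h at 37 °C with compound (10-point 3-fold dilution, top 10 μM final, DMSO ≤0.25%). Lytic LgBiT luminescence was normalized to unmodified K562 (baseline) and DMSO-treated tagged cells; IC50 interpolated at 50% from four-parameter logistic fit.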

[2] = tested on: Target C; assay: HiBiT protein abundance assay, Target C; conditions: modified K562 cells
In short: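 HiBiT knock-in K562-derived cells, 10000 cells/well, were treated 24 h at 37 °C with a 10-point 3-fold dilution series (top 10 μM final, DMSO ≤0.25%). Lytic HiBiT luminescence was normalized to unmodified K562 and DMSO controls; IC50 was interpolated at 50% from a four-parameter logistic fit.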

[3] = tested on: HTT; assay: Splicing RT-qPCR assay, HTT mRNA canonical junction (CJ) and alternative junction (AJ); conditions: for AC50: increase in AJ mRNA
In short: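 Cells: A673 (DMEM/10% FBS) or K562 (IMDM/10% FBS). Dose: 11-pt 3-fold, top 10 uM final, ≤0.25% DMSO, 24 h, 37 °C. Readout: RT-qPCR of CJ/AJ exon junctions, ΔΔCt vs housekeeper and DMSO, RQ to % response.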

[4] = Homo sapiens, K562, 24 h, Table 13A
[5] = Homo sapiens, 24 h, decrease in CJ mRNA, A673 or K562 cells, 24 hours treatment, RT-qPCR, read-out: HTT CJ IC50
[6] = Homo sapiens, 24 h, A673 or K562 cells, 24 hours treatment, RT-qPCR
[7] = Homo sapiens, RT-qPCR panel, canonical junction mRNA, compound concentration having 50% response in CJ decrease, read-out: HTT IC50 (decrease in CJ mRNA levels)
[8] = Homo sapiens, K562, 24 h, Table 13B
[9] = Homo sapiens, gene panel, CJ qPCR, protocol of Example 142, read-out: HTT IC50 (decrease in CJ mRNA levels)

Row | Compound | IC50 [1, 4] [nM] | IC50 [2, 4] [nM] | AC50 [3, 6] [nM] | IC50 [3, 7] [nM] | also measured
1 | c1nc2c(-c3cn[nH]c3)ccc(-c3ccc(O[C@@H]4C[C@H]5CC[C@@H](C4)N5)nn3)c2s1 [Compound 184] | 100 to 1000 | 100 to 1000 | < 100 | 100 to 1000 | IC50 [3, 5]: 100 to 1000 nM
2 | c1cnn(-c2ccc(-c3cnc(N[C@@H]4C[C@H]5CC[C@@H](C4)N5)nn3)c3cn[nH]c23)c1 [Compound 556] | 100 to 1000 | < 100 |  | < 100 | 
3 | COc1nc(-c2ccc(OC3CC(C)(C)NC(C)(C)C3)nn2)ccc1-c1cnn(C)c1 [Compound 918] |  |  |  |  | IC50 [1, 8]: 100 to 1000 nM; IC50 [2, 8]: 100 to 1000 nM; IC50 [3, 9]: 100 to 1000 nM
4 | COc1nc(-c2ccc(OC3CC(C)(C)NC(C)(C)C3)nn2)cc(F)c1-c1cn[nH]c1 [Compound 965] |  |  |  |  | IC50 [1, 8]: 100 to 1000 nM; IC50 [2, 8]: < 100 nM; IC50 [3, 9]: < 100 nM
5 | COc1nc(-c2ccc(OC3CC4CC(F)(F)C(C3)N4)nn2)cc(F)c1-c1cn[nH]c1 (centres unmarked) [Compound 969] |  |  |  |  | IC50 [1, 8]: 100 to 1000 nM; IC50 [2, 8]: 100 to 1000 nM; IC50 [3, 9]: 1000 to 10000 nM
6 | Cc1nc(-c2ccc(-c3cnc(N(C)[C@@H]4C[C@H]5CCC[C@@H](C4)N5)nn3)c3scnc23)cs1 [Compound 579] | 1000 to 10000 | 100 to 1000 |  | 100 to 1000 | 
7 | CN(c1ccc(-c2ccc(-c3cn[nH]c3)c3cn[nH]c23)nn1)[C@@H]1C[C@H]2CC[C@@H](C1)N2 [Compound 104] | 100 to 1000 | 100 to 1000 | 1000 to 10000 | 100 to 1000 | IC50 [3, 5]: 100 to 1000 nM
8 | CN(c1ccc(-c2ccc(-c3cn[nH]c3)c3ncsc23)nn1)[C@H]1C[C@H]2COC[C@@H](C1)N2 [Compound 356, (endo)-N-methyl-N-{6-[4-(1H-pyrazol-4-yl)-1,3-benzothiazol-7-yl]pyridazin-3-yl}-3-oxa-9-azabicyclo[3.3.1]nonan-7-amine] |  |  |  |  | IC50 ([1]; Table 13A, 24 hours): < 100 nM; IC50 ([2]; Table 13A, 24 hours): < 100 nM; IC50 ([3]; RT-qPCR panel, canonical junction mRNA, compound concentration having 50% response in CJ decrease, read-out: HTT IC50 (decrease in CJ mRNA levels)): < 100 nM
9 | Fc1cc(-c2ccc(N[C@@H]3C[C@H]4CC[C@@H](C3)N4)nn2)c2scnc2c1-c1cn[nH]c1 [Compound 339] | < 100 | < 100 | < 100 | < 100 | 
10 | Fc1ccn(-c2ccc(-c3ccc(O[C@@H]4C[C@H]5CC[C@@H](C4)N5)nn3)c3scnc23)n1 [Compound 363] | 100 to 1000 | 100 to 1000 | 100 to 1000 | < 100 | 
11 | c1n[nH]cc1-c1ccc(-c2ccc(N[C@@H]3C[C@H]4CCC[C@@H](C3)N4)nn2)c2[nH]ncc12 [Compound 294] | 100 to 1000 | 100 to 1000 | 100 to 1000 | 100 to 1000 | IC50 [3, 5]: 100 to 1000 nM
12 | c1cnn(-c2ccc(-c3cnc(N[C@@H]4C[C@H]5CCC[C@@H](C4)N5)nn3)c3cn[nH]c23)c1 [Compound 561] | 100 to 1000 | < 100 |  | < 100 | 
13 | CC(C)(C)C1CN(c2ncc(-c3ccc(-n4cccn4)c4[nH]ncc34)nn2)CCN1 (centres unmarked) [Compound 572] | 100 to 1000 | 100 to 1000 |  | < 100 | 
14 | [2H]C([2H])([2H])N(c1ccc(-c2ccc(-c3cn[nH]c3)c3ncsc23)nn1)[C@@H]1C[C@H]2CC[C@@H](C1)N2 [Compound 210] | < 100 | < 100 | < 100 | < 100 | 
15 | Fc1cc(-c2ccc(O[C@@H]3C[C@H]4CC[C@@H](C3)N4)nn2)c2[nH]ncc2c1-c1cn[nH]c1 [Compound 216] | < 100 | 100 to 1000 | < 100 | < 100 | 
16 | CN(c1ccc(-c2ccc(-c3cn[nH]c3)c3ncsc23)nn1)[C@@H]1C[C@H]2CC[C@@H](C1)N2 [Compound 213] | < 100 | < 100 | < 100 | < 100 | 
17 | COc1nc(-c2ccc(N3CCC(NC(C)(C)C)C3)nn2)ccc1-c1cn[nH]c1 (centres unmarked) [Compound 956] |  |  |  |  | IC50 [1, 8]: 100 to 1000 nM; IC50 [2, 8]: 100 to 1000 nM; IC50 [3, 9]: < 100 nM
18 | CN(c1ccc(-c2ccc(-c3cn[nH]c3)c3ncsc23)nn1)C1CC(C)(C)NC(C)(C)C1 [Compound 132] | 100 to 1000 | 100 to 1000 | 100 to 1000 | 100 to 1000 | IC50 [3, 5]: 100 to 1000 nM
19 | CC1(C)CC(Oc2ccc(-c3ccc(-c4cn[nH]c4)c4ncsc34)nn2)CCN1 (centres unmarked) [Compound 182] | 100 to 1000 | 100 to 1000 | 1000 to 10000 | 1000 to 10000 | IC50 [3, 5]: 1000 to 10000 nM
20 | COc1nc(-c2ccc(N(C)[C@@H]3C[C@H]4CC[C@@H](C3)N4)nn2)ccc1-c1cn[nH]c1 [Compound 906] |  |  |  |  | IC50 [1, 8]: < 100 nM; IC50 [2, 8]: < 100 nM; IC50 [3, 9]: < 100 nM
21 | CN(c1ccc(-c2ccc(-c3cn[nH]c3)c3ncsc23)nn1)[C@H]1C[C@]2(C)CC[C@](C)(C1)N2 [Compound 204] | < 100 | < 100 | < 100 | < 100 | 
22 | Cc1cc(-c2ccc(-c3cnc(N(C)[C@@H]4C[C@H]5CCC[C@@H](C4)N5)nn3)c3scnc23)sn1 [Compound 580] | 100 to 1000 | < 100 |  | < 100 | 
23 | CC(C)(C)[C@H]1CN(c2ncc(-c3ccc(-n4cccn4)c4[nH]ncc34)nn2)CCN1 [Compound 581] | 100 to 1000 | < 100 |  | < 100 | 
24 | CN(c1ccc(-c2ccc(-c3cn[nH]c3)c(OC(F)F)n2)nn1)[C@@H]1C[C@H]2CC[C@@H](C1)N2 [Compound 955] |  |  |  |  | IC50 [1, 8]: < 100 nM; IC50 [2, 8]: < 100 nM; IC50 [3, 9]: < 100 nM
25 | Fc1cc(-c2ccc(O[C@@H]3C[C@H]4CC[C@@H](C3)N4)nn2)c2sncc2c1-c1cn[nH]c1 [Compound 327] | < 100 | < 100 | < 100 | < 100 | 
26 | CCN(c1ccc(-c2ccc(-c3cn[nH]c3)c3ncsc23)nn1)[C@@H]1C[C@H]2CCC[C@@H](C1)N2 [Compound 228] | < 100 | < 100 | 100 to 1000 | < 100 | 
27 | COc1cc(-c2ccc(-c3ccc(N(C)C4CC(C)(C)NC(C)(C)C4)nn3)c3scnc23)cnn1 [Compound 330] | 100 to 1000 | < 100 | < 100 | < 100 | 
28 | [2H]C([2H])([2H])N(c1ccc(-c2ccc(-c3cn[nH]c3)c3ncsc23)nn1)[C@@H]1C[C@H]2CCC[C@@H](C1)N2 [Compound 227] | < 100 | < 100 | < 100 | < 100 | 

Reference: patent US20240368163A1, “COMPOUNDS AND METHODS FOR MODULATING SPLICING” (REMIX THERAPEUTICS INC., priority 2021, published 2024)
